Data taken from ChEMBL document CHEMBL3046161, “Synthesis of potential antitubercular and antimicrobial s-triazine-based scaffolds via Suzuki cross-coupling reaction” (2013).
Converted amounts (≈) assume the structure as drawn.

Experiments:
Format in all cases: functional
Salmonella typhi [1] = assay: Antibacterial activity against Salmonella enterica subsp. enterica serovar Typhi MTCC 733 assessed as growth inhibition at 3.12 to 50 ug/mL after 24 hr by agar disk diffusion method
Klebsiella pneumoniae [2] = assay: Antibacterial activity against Klebsiella pneumoniae MTCC 109 assessed as growth inhibition at 3.12 to 50 ug/mL after 24 hr by agar disk diffusion method
Klebsiella pneumoniae [3] = assay: Antibacterial activity against Klebsiella pneumoniae MTCC 109 assessed as growth inhibition after 24 hr by agar streak dilution method; settings: MTCC 109, 24 h
Salmonella typhi [4] = assay: Antibacterial activity against Salmonella enterica subsp. enterica serovar Typhi MTCC 733 assessed as growth inhibition after 24 hr by agar streak dilution method; settings: MTCC 733, 24 h
Pseudomonas aeruginosa [5] = assay: Antibacterial activity against Pseudomonas aeruginosa MTCC 741 assessed as growth inhibition after 24 hr by agar streak dilution method; settings: MTCC 741, 24 h
Escherichia coli [6] = assay: Antibacterial activity against Escherichia coli MTCC 739 assessed as growth inhibition after 24 hr by agar streak dilution method; settings: MTCC 739, 24 h
Bacillus cereus [7] = assay: Antibacterial activity against Bacillus cereus MTCC 430 assessed as growth inhibition after 24 hr by agar streak dilution method; settings: MTCC 430, 24 h
Staphylococcus aureus [8] = assay: Antibacterial activity against Staphylococcus aureus MTCC 96 assessed as growth inhibition after 24 hr by agar streak dilution method; settings: MTCC 96, 24 h
[9] = tested on: Mycobacterium tuberculosis; assay: Antimycobacterial activity against Mycobacterium tuberculosis H37Rv assessed as growth inhibition at MIC after 12 to 28 days by Lowenstein and Jensen agar dilution method
[10] = tested on: Mycobacterium tuberculosis; assay: Antimycobacterial activity against Mycobacterium tuberculosis H37Rv assessed as growth inhibition after 12 to 28 days by Lowenstein and Jensen agar dilution method
[11] = tested on: Mycobacterium tuberculosis; assay: Antimycobacterial activity against Mycobacterium tuberculosis H37Rv assessed as growth inhibition measured within 10 days by BACTEC MGIT method; settings: 240 h
Candida albicans [12] = assay: Antifungal activity against Candida albicans MTCC 183 assessed as growth inhibition at 3.12 to 50 ug/mL after 24 hr by agar disk diffusion method
Aspergillus clavatus [13] = assay: Antifungal activity against Aspergillus clavatus MTCC 1323 assessed as growth inhibition at 3.12 to 50 ug/mL after 24 hr by agar disk diffusion method
Aspergillus fumigatus [14] = assay: Antifungal activity against Aspergillus fumigatus MTCC 343 assessed as growth inhibition at 3.12 to 50 ug/mL after 24 hr by agar disk diffusion method
Aspergillus niger [15] = assay: Antifungal activity against Aspergillus niger MTCC 282 assessed as growth inhibition at 3.12 to 50 ug/mL after 24 hr by agar disk diffusion method
Candida albicans [16] = assay: Antifungal activity against Candida albicans MTCC 183 assessed as growth inhibition after 48 hr by agar streak dilution method; settings: MTCC 183, 48 h
Aspergillus clavatus [17] = assay: Antifungal activity against Aspergillus clavatus MTCC 1323 assessed as growth inhibition after 48 hr by agar streak dilution method; settings: MTCC 1323, 48 h
Aspergillus fumigatus [18] = assay: Antifungal activity against Aspergillus fumigatus MTCC 343 assessed as growth inhibition after 48 hr by agar streak dilution method; settings: MTCC 343, 48 h
Aspergillus niger [19] = assay: Antifungal activity against Aspergillus niger MTCC 282 assessed as growth inhibition after 48 hr by agar streak dilution method; settings: MTCC 282, 48 h
Shigella flexneri [20] = assay: Antibacterial activity against Shigella flexneri MTCC 1457 assessed as growth inhibition at 3.12 to 50 ug/mL after 24 hr by agar disk diffusion method
Proteus vulgaris [21] = assay: Antibacterial activity against Proteus vulgaris MTCC 1771 assessed as growth inhibition at 3.12 to 50 ug/mL after 24 hr by agar disk diffusion method
Pseudomonas aeruginosa [22] = assay: Antibacterial activity against Pseudomonas aeruginosa MTCC 741 assessed as growth inhibition at 3.12 to 50 ug/mL after 24 hr by agar disk diffusion method
Escherichia coli [23] = assay: Antibacterial activity against Escherichia coli MTCC 739 assessed as growth inhibition at 3.12 to 50 ug/mL after 24 hr by agar disk diffusion method
Bacillus cereus [24] = assay: Antibacterial activity against Bacillus cereus MTCC 430 assessed as growth inhibition at 3.12 to 50 ug/mL after 24 hr by agar disk diffusion method
Staphylococcus aureus [25] = assay: Antibacterial activity against Staphylococcus aureus MTCC 96 assessed as growth inhibition at 3.12 to 50 ug/mL after 24 hr by agar disk diffusion method
Shigella flexneri [26] = assay: Antibacterial activity against Shigella flexneri MTCC 1457 assessed as growth inhibition after 24 hr by agar streak dilution method; settings: MTCC 1457, 24 h
Proteus vulgaris [27] = assay: Antibacterial activity against Proteus vulgaris MTCC 1771 assessed as growth inhibition after 24 hr by agar streak dilution method; settings: MTCC 1771, 24 h

CCOc1ccc(NC(=O)CNc2ccc(-c3nc(N4CC(C)CC(C)C4)nc(N4CC(C)CC(C)C4)n3)cc2)cc1 (stereo not drawn)
inhibition zone (IZ) (Salmonella typhi [1]): 21 mm | inhibition zone (IZ) (Klebsiella pneumoniae [2]): <10 mm | MIC (Klebsiella pneumoniae [3]): 50 µg/mL (≈ 87.4 µM) | MIC (Salmonella typhi [4]): 25 µg/mL (≈ 43.7 µM) | MIC (Pseudomonas aeruginosa [5]): 50 µg/mL (≈ 87.4 µM) | MIC (Escherichia coli [6]): 12.5 µg/mL (≈ 21.9 µM) | MIC (Bacillus cereus [7]): 50 µg/mL (≈ 87.4 µM) | MIC (Staphylococcus aureus [8]): 25 µg/mL (≈ 43.7 µM) | growth inhibition (GI) [9]: 98% | MIC [10]: 25 µg/mL (≈ 43.7 µM) | MIC [11]: > 6.25 µg/mL | inhibition zone (IZ) (Candida albicans [12]): 24 mm | inhibition zone (IZ) (Aspergillus clavatus [13]): 14 mm | inhibition zone (IZ) (Aspergillus fumigatus [14]): <10 mm | inhibition zone (IZ) (Aspergillus niger [15]): 19 mm | MIC (Candida albicans [16]): 25 µg/mL (≈ 43.7 µM) | MIC (Aspergillus clavatus [17]): 50 µg/mL (≈ 87.4 µM) | MIC (Aspergillus fumigatus [18]): > 50 µg/mL | MIC (Aspergillus niger [19]): 25 µg/mL (≈ 43.7 µM) | inhibition zone (IZ) (Shigella flexneri [20]): 22 mm | inhibition zone (IZ) (Proteus vulgaris [21]): 25 mm | inhibition zone (IZ) (Pseudomonas aeruginosa [22]): 16 mm | inhibition zone (IZ) (Escherichia coli [23]): 24 mm | inhibition zone (IZ) (Bacillus cereus [24]): 20 mm | inhibition zone (IZ) (Staphylococcus aureus [25]): 19 mm | MIC (Shigella flexneri [26]): 25 µg/mL (≈ 43.7 µM) | MIC (Proteus vulgaris [27]): 12.5 µg/mL (≈ 21.9 µM)

CC(=O)Nc1ccc(NC(=O)CNc2ccc(-c3nc(N4CC(C)CC(C)C4)nc(N4CC(C)CC(C)C4)n3)cc2)cc1 (stereo not drawn)
inhibition zone (IZ) (Salmonella typhi [1]): <10 mm | inhibition zone (IZ) (Klebsiella pneumoniae [2]): <10 mm | MIC (Klebsiella pneumoniae [3]): 50 µg/mL (≈ 85.5 µM) | MIC (Salmonella typhi [4]): 50 µg/mL (≈ 85.5 µM) | MIC (Pseudomonas aeruginosa [5]): 50 µg/mL (≈ 85.5 µM) | MIC (Escherichia coli [6]): 50 µg/mL (≈ 85.5 µM) | MIC (Bacillus cereus [7]): 50 µg/mL (≈ 85.5 µM) | MIC (Staphylococcus aureus [8]): 50 µg/mL (≈ 85.5 µM) | growth inhibition (GI) [9]: 95% | MIC [10]: 62.5 µg/mL (≈ 107 µM) | MIC [11]: > 6.25 µg/mL | inhibition zone (IZ) (Candida albicans [12]): 17 mm | inhibition zone (IZ) (Aspergillus clavatus [13]): 19 mm | inhibition zone (IZ) (Aspergillus fumigatus [14]): 12 mm | inhibition zone (IZ) (Aspergillus niger [15]): 22 mm | MIC (Candida albicans [16]): 50 µg/mL (≈ 85.5 µM) | MIC (Aspergillus clavatus [17]): 50 µg/mL (≈ 85.5 µM) | MIC (Aspergillus fumigatus [18]): 50 µg/mL (≈ 85.5 µM) | MIC (Aspergillus niger [19]): 12.5 µg/mL (≈ 21.4 µM) | inhibition zone (IZ) (Shigella flexneri [20]): 16 mm | inhibition zone (IZ) (Proteus vulgaris [21]): 27 mm | inhibition zone (IZ) (Pseudomonas aeruginosa [22]): 19 mm | inhibition zone (IZ) (Escherichia coli [23]): 20 mm | inhibition zone (IZ) (Bacillus cereus [24]): 12 mm | inhibition zone (IZ) (Staphylococcus aureus [25]): <10 mm | MIC (Shigella flexneri [26]): 50 µg/mL (≈ 85.5 µM) | MIC (Proteus vulgaris [27]): 6.25 µg/mL (≈ 10.7 µM)

CC1CC(C)CN(c2nc(-c3ccc(NCC(=O)Nc4nc5ccccc5s4)cc3)nc(N3CC(C)CC(C)C3)n2)C1 (stereo not drawn)
inhibition zone (IZ) (Salmonella typhi [1]): 12 mm | inhibition zone (IZ) (Klebsiella pneumoniae [2]): <10 mm | MIC (Klebsiella pneumoniae [3]): 50 µg/mL (≈ 85.5 µM) | MIC (Salmonella typhi [4]): 50 µg/mL (≈ 85.5 µM) | MIC (Pseudomonas aeruginosa [5]): 50 µg/mL (≈ 85.5 µM) | MIC (Escherichia coli [6]): 50 µg/mL (≈ 85.5 µM) | MIC (Bacillus cereus [7]): 50 µg/mL (≈ 85.5 µM) | MIC (Staphylococcus aureus [8]): 50 µg/mL (≈ 85.5 µM) | growth inhibition (GI) [9]: 94% | MIC [10]: 500 µg/mL (≈ 855 µM) | MIC [11]: > 6.25 µg/mL | inhibition zone (IZ) (Candida albicans [12]): <10 mm | inhibition zone (IZ) (Aspergillus clavatus [13]): <10 mm | inhibition zone (IZ) (Aspergillus fumigatus [14]): <10 mm | inhibition zone (IZ) (Aspergillus niger [15]): <10 mm | MIC (Candida albicans [16]): > 50 µg/mL | MIC (Aspergillus clavatus [17]): > 50 µg/mL | MIC (Aspergillus fumigatus [18]): > 50 µg/mL | MIC (Aspergillus niger [19]): 50 µg/mL (≈ 85.5 µM) | inhibition zone (IZ) (Shigella flexneri [20]): <10 mm | inhibition zone (IZ) (Proteus vulgaris [21]): 18 mm | inhibition zone (IZ) (Pseudomonas aeruginosa [22]): 16 mm | inhibition zone (IZ) (Escherichia coli [23]): 14 mm | inhibition zone (IZ) (Bacillus cereus [24]): 14 mm | inhibition zone (IZ) (Staphylococcus aureus [25]): 16 mm | MIC (Shigella flexneri [26]): 50 µg/mL (≈ 85.5 µM) | MIC (Proteus vulgaris [27]): 50 µg/mL (≈ 85.5 µM)

CC1CC(C)CN(c2nc(-c3ccc(NCC(=O)Nc4ccc(F)cc4)cc3)nc(N3CC(C)CC(C)C3)n2)C1 (stereo not drawn)
inhibition zone (IZ) (Salmonella typhi [1]): 21 mm | inhibition zone (IZ) (Klebsiella pneumoniae [2]): 21 mm | MIC (Klebsiella pneumoniae [3]): 50 µg/mL (≈ 91.6 µM) | MIC (Salmonella typhi [4]): 25 µg/mL (≈ 45.8 µM) | MIC (Pseudomonas aeruginosa [5]): 12.5 µg/mL (≈ 22.9 µM) | MIC (Escherichia coli [6]): 25 µg/mL (≈ 45.8 µM) | MIC (Bacillus cereus [7]): 25 µg/mL (≈ 45.8 µM) | MIC (Staphylococcus aureus [8]): 12.5 µg/mL (≈ 22.9 µM) | growth inhibition (GI) [9]: 97% | MIC [10]: 25 µg/mL (≈ 45.8 µM) | MIC [11]: > 6.25 µg/mL | inhibition zone (IZ) (Candida albicans [12]): 15 mm | inhibition zone (IZ) (Aspergillus clavatus [13]): 13 mm | inhibition zone (IZ) (Aspergillus fumigatus [14]): 22 mm | inhibition zone (IZ) (Aspergillus niger [15]): 18 mm | MIC (Candida albicans [16]): 50 µg/mL (≈ 91.6 µM) | MIC (Aspergillus clavatus [17]): 50 µg/mL (≈ 91.6 µM) | MIC (Aspergillus fumigatus [18]): 50 µg/mL (≈ 91.6 µM) | MIC (Aspergillus niger [19]): 50 µg/mL (≈ 91.6 µM) | inhibition zone (IZ) (Shigella flexneri [20]): 25 mm | inhibition zone (IZ) (Proteus vulgaris [21]): 16 mm | inhibition zone (IZ) (Pseudomonas aeruginosa [22]): 27 mm | inhibition zone (IZ) (Escherichia coli [23]): 20 mm | inhibition zone (IZ) (Bacillus cereus [24]): 22 mm | inhibition zone (IZ) (Staphylococcus aureus [25]): 20 mm | MIC (Shigella flexneri [26]): 12.5 µg/mL (≈ 22.9 µM) | MIC (Proteus vulgaris [27]): 50 µg/mL (≈ 91.6 µM)
